The record followed here is ChEMBL document CHEMBL1150275, “Pharmacological and pharmacokinetic characterization of 2-piperazine-alpha-isopropyl benzylamine derivatives as melanocortin-4 receptor antagonists” (Bioorg Med Chem, 2008).

The term Kp denotes tissue or fluid exposure divided by exposure in the circulation. The Cmax is the highest concentration seen after dosing. Usually logD stands for the decadic logarithm of the distribution of all forms, ionised or not, between an organic phase and buffer at a given pH. In general, bioavailability refers to dose-corrected exposure relative to a reference, in per cent. By Tmax is commonly meant the time from dosing to the highest level. Usually Papp stands for a coefficient for how fast a substance crosses the barrier.

A short description of data set [1]: Volume of distribution in mouse at 5 mg/kg, iv and 10 mg/kg, po. In kind it is ADME, organism-based. The conditions noted are these: in vivo.
Data set [2] can be described thus: Drug level in mouse brain at 5 mg/kg, iv after 1 hr. In kind it is ADME, organism-based. On the set-up: dose 5 mg/kg, route intravenous. Conditions: read-out: Drug uptake.
Data set [3] can be described thus: Ratio of drug level in brain to plasma in mouse at 5 mg/kg, iv after 1 hr. The class given is ADME, organism-based. On the set-up: dose 5 mg/kg, route intravenous.
Data set [4] can be described thus: Cmax in mouse at 5 mg/kg, iv and 10 mg/kg, po. In kind it is ADME, organism-based. Conditions: in vivo.
Another data set can be described thus: physchem. The conditions noted are these: buffer, pH 7.4.
Data set [5] in a line: Oral bioavailability in mouse at 10 mg/kg. The class given is ADME, organism-based. Conditions: in vivo.
Data set [6] is described as follows: Ratio of drug level in brain to plasma in mouse at 5 mg/kg, iv after 4 hrs. In kind it is ADME, organism-based. On the set-up: dose 5 mg/kg, route intravenous.
Data set [7] can be described thus: Drug level in mouse brain at 5 mg/kg, iv after 4 hrs. The class given is ADME, organism-based. On the set-up: dose 5 mg/kg, route intravenous. Conditions: read-out: Drug uptake.
The nature of data set [8]: Tmax in mouse at 5 mg/kg, iv and 10 mg/kg, po. The class given is ADME, organism-based. The conditions noted are these: in vivo.
Data set [9] can be described thus: AUC in mouse at 10 mg/kg, po. In kind it is ADME, organism-based. On the set-up: dose 10 mg/kg, route oral. Conditions: plasma.
The next data set relates to Caco-2. Nature of the data set: Apparent permeability across human Caco-2 cells. The class given is ADME, cell-based.
A short description of data set [10]: Cmax in rat brain at 10 mg/kg, po. The class given is ADME, organism-based. On the set-up: dose 10 mg/kg, route oral.
A short description of data set [11]: Volume of distribution in rat at 5 mg/kg, iv and 10 mg/kg, po. The class given is ADME, organism-based. Conditions: in vivo.
A short description of data set [12]: Volume of distribution in monkey at 5 mg/kg, iv and 10 mg/kg, po. In kind it is ADME, organism-based, Macaca mulatta. The conditions noted are these: rhesus monkey, in vivo.
A short description of data set [13]: Volume of distribution in dog at 5 mg/kg, iv and 10 mg/kg, po. In kind it is ADME, organism-based, Canis lupus familiaris. The conditions noted are these: in vivo.
The nature of data set [14]: Drug level in rat brain at 10 mg/kg, po after 1 hr. On the set-up: dose 10 mg/kg, route oral. Conditions: read-out: Drug uptake. The class given is ADME, organism-based.
A further data set relates to Brain. The data set can be described thus: AUC in rat brain at 10 mg/kg, po. Conditions: in vivo. On the set-up: dose 10 mg/kg, route oral. In kind it is ADME, organism-based.
The nature of data set [15]: Ratio of Cmax in brain to plasma in rat at 10 mg/kg, po after 4 hrs. The class given is ADME, organism-based. On the set-up: dose 10 mg/kg, route oral. The conditions noted are these: brain and plasma.
A short description of data set [16]: Cmax in monkey at 5 mg/kg, iv and 10 mg/kg, po. The class given is ADME, organism-based, Macaca mulatta. The conditions noted are these: rhesus monkey, in vivo.
Data set [17] in a line: Oral bioavailability in dog at 10 mg/kg. In kind it is ADME, organism-based, Canis lupus familiaris. Conditions: in vivo.
A short description of data set [18]: Ratio of Cmax in brain to plasma in rat at 10 mg/kg, po. The class given is ADME, organism-based. On the set-up: dose 10 mg/kg, route oral. Conditions: brain and plasma.
The nature of data set [19]: Cmax in dog at 5 mg/kg, iv and 10 mg/kg, po. In kind it is ADME, organism-based, Canis lupus familiaris. The conditions noted are these: in vivo.
The nature of data set [20]: Drug level in rat brain at 10 mg/kg, po after 4 hrs. The conditions noted are these: read-out: Drug uptake. The class given is ADME, organism-based. On the set-up: dose 10 mg/kg, route oral.
The nature of data set [21]: Tmax in rat at 5 mg/kg, iv and 10 mg/kg, po. The class given is ADME, organism-based. Conditions: in vivo.
A short description of data set [22]: AUC in rat at 10 mg/kg, po. In kind it is ADME, organism-based. On the set-up: dose 10 mg/kg, route oral. Conditions: plasma.
Data set [23] is described as follows: Ratio of Cmax in brain to plasma in rat at 10 mg/kg, po after 1 hr. In kind it is ADME, organism-based. On the set-up: dose 10 mg/kg, route oral. The conditions noted are these: brain and plasma.
Data set [24] in a line: AUC in monkey at 10 mg/kg, po. The class given is ADME, organism-based, Macaca mulatta. On the set-up: dose 10 mg/kg, route oral. The conditions noted are these: rhesus monkey, plasma.
Data set [25] is described as follows: AUC in dog at 10 mg/kg, po. The class given is ADME, organism-based, Canis lupus familiaris. On the set-up: dose 10 mg/kg, route oral. Conditions: plasma.
Data set [26] can be described thus: Oral bioavailability in monkey at 10 mg/kg. In kind it is ADME, organism-based, Macaca mulatta. Conditions: rhesus monkey, in vivo.
A short description of data set [27]: Ratio of AUC in brain to plasma in rat at 10 mg/kg, po. In kind it is ADME, organism-based. On the set-up: dose 10 mg/kg, route oral. The conditions noted are these: brain and plasma.
Data set [28] can be described thus: Tmax in dog at 5 mg/kg, iv and 10 mg/kg, po. The class given is ADME, organism-based, Canis lupus familiaris. Conditions: in vivo.
The nature of data set [29]: Cmax in rat at 5 mg/kg, iv and 10 mg/kg, po. Conditions: in vivo. The class given is ADME, organism-based.
The nature of data set [30]: Tmax in rat brain at 10 mg/kg, po. In kind it is ADME, organism-based. On the set-up: dose 10 mg/kg, route oral.
Data set [31] is described as follows: Tmax in monkey at 5 mg/kg, iv and 10 mg/kg, po. In kind it is ADME, organism-based, Macaca mulatta. The conditions noted are these: rhesus monkey, in vivo.
A short description of data set [32]: Oral bioavailability in rat at 10 mg/kg. The conditions noted are these: in vivo. In kind it is ADME, organism-based.

`CNCCN[C@H](c1cccc(F)c1N1CCN(C(=O)[C@H](C)Cc2ccc(Cl)cc2)CC1)C(C)C`: the Vd in data set [1] is 52 L/kg. In data set [2], the concentration at 1 h is 53 ng/g. Besides, the Kp at 1 h in data set [3] worked out at 0.4. Moreover, the peak level in [4] (Cmax) was 166 ng/mL. For the same molecule, the logD in the data set “physchem” stood at 2.6. Further, the bioavailability in data set [5] came out at 47%. Also, the Kp at 4 h in [6] stood at 1.2. Also, the concentration at 4 h in [7] amounted to 62 ng/g. For the same molecule, the Tmax in data set [8] came out at 0.5 h. In data set [9], this molecule had an AUC of 1630 ng·h/mL. In addition, the Papp with Caco-2 is recorded as 0.4 ×10⁻⁶ cm/s.
`CC(C)[C@H](NC(=O)CCN(C)C)c1cccc(F)c1N1CCN(C(=O)[C@H](C)Cc2ccc(Cl)cc2)CC1`: the Cmax in data set [10] was 52 ng/g; in data set [4], 308 ng/mL; in [16] it was 200 ng/mL; in data set [19], 250 ng/mL; in [29], 195 ng/mL. Besides, the Vd in data set [11] was 7.7 L/kg; in data set [12], 5.6 L/kg; in data set [13], 8.7 L/kg; in [1], 5.2 L/kg. The concentration at 1 h in data set [2] was 322 ng/g; in [14], 6.3 ng/g. The Kp at 1 h in [3] came out at 0.6; in data set [23], 0.05. The AUC with Brain is 618 ng·h/g; in data set [22], 1290 ng·h/mL; in data set [24], 2650 ng·h/mL; in data set [25], 3850 ng·h/mL; in [9] it was 2690 ng·h/mL. Moreover, the logD in the data set “physchem” amounted to 2.4. Moreover, the bioavailability in data set [5] amounted to 42%; in [17], 37%; in [26], 21%; in data set [32], 31%. Moreover, the Kp at 4 h in data set [15] came out at 0.2; in data set [6], 0.8. Also, the Kp in data set [18] is 0.27; in data set [27], 0.48. Besides, the values for the concentration at 4 h in [20] and in data set [7] were 38 ng/g and 175 ng/g, respectively. Also, the Tmax in data set [21] was 6 h; in data set [8] it was 0.5 h; in data set [28], 4 h; in [30], 6 h; in [31] it was 6.7 h. The Papp in the data set on Caco-2 came to 10 ×10⁻⁶ cm/s.
Regarding `COc1cc(Cl)ccc1C[C@@H](C)C(=O)N1CCN(c2c(F)cccc2[C@@H](NC(=O)C2CNC2)C(C)C)CC1`, in data set [1], the Vd came to 10 L/kg. In [2], the concentration at 1 h was 51 ng/g. Moreover, in [3], the concentration ratio (Kp) at 1 h worked out at 0.1. The same molecule registered a Cmax in data set [4] of 104 ng/mL. The molecule also had a logD in the data set “physchem” of 2.6. This molecule yielded a bioavailability in [5] of 5.6%. In addition, in data set [6], the Kp at 4 h turned out to be 0.4. In addition, the concentration at 4 h in data set [7] was 32 ng/g. For the same molecule, the Tmax in [8] was determined as 2 h. Besides, the AUC in [9] was determined as 336 ng·h/mL. Besides, in the data set with Caco-2, the Papp is 0.2 ×10⁻⁶ cm/s.
For `CNCC(=O)N[C@H](c1cccc(F)c1N1CCN(C(=O)[C@H](C)Cc2ccc(Cl)cc2Cl)CC1)C(C)C`, the Vd in data set [1] worked out at 13 L/kg. In data set [2], the concentration at 1 h turned out to be 85 ng/g. The Kp at 1 h in data set [3] was 0.3. In data set [4], this molecule gave a Cmax of 172 ng/mL. Also, the logD in the data set “physchem” amounted to 4.3. In data set [5], this molecule showed a bioavailability of 23%. Further, the Kp at 4 h in data set [6] is 0.5. The concentration at 4 h in data set [7] turned out to be 71 ng/g. For the same molecule, the Tmax in data set [8] was 2 h. This molecule came in with an AUC in data set [9] of 1010 ng·h/mL. Also, the Papp in the data set on Caco-2 was 2 ×10⁻⁶ cm/s.
